Assay results: patent US20240180880A1, “METHODS OF USING EHMT2 INHIBITORS IN TREATING OR PREVENTING BLOOD DISORDERS” (Epizyme, Inc., priority 2017, published 2024)

Key:
Assay type in all cases: cell-based
[1] = system: Human CD34+ progenitor cells; assay: Human CD34+ progenitors assay, HbF (Hbγ) quantitation by mass spectrometry; details: compound 205 with Hydroxyurea, matrix format, CD34+ cells from a pool of 5 healthy donors; Loewe excess in Chalice
Excerpt: An in-vitro system to test the ability of compound to induce fetal hemoglobin expression was developed. This system used Human CD34+ progenitor cells freshly isolated from healthy donors blood collections. Peripheral blood mononuclear cells (PBMCs) were isolated from whole blood by density gradient centrifugation using SepMatem-50 and Lymphoprep™ from Stem Cell Technologies. CD34^+ hematopoietic progenitor cells (HSPCs) were isolated from PBMCs by magnetic separation using Stem Cells Technologies CD34+ positive selection/isolation kit (Stem Cell Technologies, #18056). CD34 cells were cultured using a 2-phase 14 day culture system. During phase 1 (day 0 to day 7) cells were expanded. Expansion was followed by phase 2 (day 7 to day 14) where cells were differentiated toward the erythroid lineage. Compounds were added on day 1 and day 7 as 1000× stock after being diluted in dimethyl sulfoxide (DMSO) in a 3-fold series. […] At day 14 cells were harvested for Fluorescent Activated Cell Sorting (FACS) analysis and for HbF quantitation by Mass spectrometry. […] Data was analyzed using FlowJo software. % HbF^+ cells and ratios H3/H3K9me2 intensities were calculated for CD71^+/CD235a^+ gated populations.
Hydroxyurea was also evaluated as single agent and in combination with the EHMT1/2 inhibitor compound 205 in a matrix format using CD34^+ cells isolated from a pool of 5 healthy donors. […]

Various cell lines [2] = assay: Pretreatment model (7+3 or 7+7) combination proliferation assay, cellular ATP luminescence, Loewe synergy; details: several cell lines
Protocol: Pretreatment model: Various cell lines were seeded in flasks at densities that ensured log-linear growth rates for the duration of the assay. […] Cultures were incubated in a humidified atmosphere of 5% CO2 at 37° C. for 4 days. On Day 4 cells were spun down, resuspended in fresh medium, counted and diluted to the original cell density in new flasks. […] Cells were then spun down on Day 7, re-suspended in fresh medium and plated to assay-ready 384 well plates with an automated multichannel dispenser. […] Compounds listed in Table 7 were dispensed with a HP-D300 nanoliter dispenser (Tecan, Mannedorf, Switzerland), with each plate containing 8 combination partners. Plates were then incubated for an additional three or seven days as noted in FIG. 1D to follow a 7+3 or 7+7 model (cell lines with slow growth characteristics were tested in a 7+7 model). Quantification of proliferation through measurement of cellular adenosine triphosphate (ATP) was performed via a luminescent cell viability assay and read on a plate reader with luminescence module. […]
Fa was calculated with the formula:
Fa=1−(Luminescence of test compound/Luminesence of untreated control)

Various cell lines [3] = assay: Cotreatment model (7-day) combination proliferation assay, cellular ATP luminescence, Loewe synergy; details: several cell lines, Compound 205 and DNA hypomethylating agents, 7-day cotreatment models (FIG. 1D)
Protocol: Cells were incubated for seven days under humidified atmosphere of 5% CO2 at 37° C. The final concentration of DMSO (vehicle) in the assay was 0.1% v/v. Quantification of proliferation through measurement of cellular adenosine triphosphate (ATP) was performed via a luminescent cell viability assay. Plates were read in a plate reader with luminescence module. Quantification of synergy was performed using the Loewe Additivity model and calculating the Loewe Volume (V Loewe) with the Chalice Software (Horizon) and dose response curves and IC50 vs concentration plots were generated with Graphpad Prism software.

[4] = system: Human CD34+ progenitor cells; assay: Human CD34+ progenitors assay for fetal hemoglobin induction, % HbF+ cells by FACS (healthy donors); details: for % HbF+ cells: 26% basal level
Excerpt: An in-vitro system to test the ability of compound to induce fetal hemoglobin expression was developed. This system used Human CD34+ progenitor cells freshly isolated from healthy donors blood collections. Peripheral blood mononuclear cells (PBMCs) were isolated from whole blood by density gradient centrifugation using SepMatem-50 and Lymphoprep™ from Stem Cell Technologies. CD34^+ hematopoietic progenitor cells (HSPCs) were isolated from PBMCs by magnetic separation using Stem Cells Technologies CD34+ positive selection/isolation kit (Stem Cell Technologies, #18056). CD34 cells were cultured using a 2-phase 14 day culture system. During phase 1 (day 0 to day 7) cells were expanded. Expansion was followed by phase 2 (day 7 to day 14) where cells were differentiated toward the erythroid lineage. Compounds were added on day 1 and day 7 as 1000× stock after being diluted in dimethyl sulfoxide (DMSO) in a 3-fold series. Final DMSO concentration in the assay was 0.1%. At day 14 cells were harvested for Fluorescent Activated Cell Sorting (FACS) analysis and for HbF quantitation by Mass spectrometry. For cell surface and intracellular marker analysis by FACS, cells were fixed and stained with a cocktail of antibodies covering erythroid lineage markers, HbF and H3 and H3K9me2 (Table 11). Data was collected using Canto II flow cytometer (BD Biosciences) and the FACSDiva software. Data was analyzed using FlowJo software. % HbF^+ cells and ratios H3/H3K9me2 intensities were calculated for CD71^+/CD235a^+ gated populations.
A list of pharmacological agents was evaluated for their potential to induce fetal Hemoglobin (HbF) in order to identify combination partners for our EHMT1/2 inhibitors. HbF can be induced by toxicity; therefore, the potential of the agents to induce HbF were evaluated in the context of cell viability. (Table 12). The EHMT1/2 inhibitor Compound 205 was evaluated in combination with a fixed dose of 10 μM Hydroxyurea and 0.1 μM Pomalidomide. […] 10 μM Hydroxyurea as a single agent was able to induce 01% HbF^+ cells from 26% basal level to 45% while 0.016 μM compound 205 as a single agent induced to 45%. In combination these two agents were able to induced % HbF^+ to 63% (FIG. 3A). […] 0.1 μM Pomalidomide as a single agent was able to induce ° % HbF cells from 26% basal level to 48% while 0.016 μM compound 205 as a single agent induced to 45%. In combination these two agents were able to induce % HbF^+ to 78% (FIG. 3B).
Hydroxyurea was also evaluated as single agent and in combination with the EHMT1/2 inhibitor compound 205 in a matrix format using CD34^+ cells isolated from a pool of 5 healthy donors. […] (FIG. 4 and FIG. 5, respectively). It is noted that for Loewe excess determination in Chalice, data was normalized to the highest and lowest Hbγ induction observed under the conditions and dose ranges in the assay.

## CNc1cc(C)nc(Nc2ccc(OC)c(OCCCN3CCCC3)c2)n1 [Compound 205]
[1]
  combination effect on Hbγ protein expression (MS quantification): synergistically
Various cell lines [2]; Compound 205 and ATRA (FIG. 1B)
  combination effect on proliferation (Loewe): synergy
Various cell lines [2]; Compound 205 and Venetoclax (FIG. 1C)
  combination effect on proliferation (Loewe): synergy
Various cell lines [3]
  combination effect on proliferation (Loewe): synergy
[4]; 0.016 μM compound 205 as a single agent
  % HbF+ cells: 45%
[4]; 0.016 μM compound 205 in combination with 0.1 μM Pomalidomide
  % HbF+ cells: 78%
[4]; 0.016 μM compound 205 in combination with 10 μM Hydroxyurea
  % HbF+ cells: 63%
[4]; compound 205 with Hydroxyurea, matrix format, CD34+ cells from a pool of 5 healthy donors
  combination effect on % HbF+ cells (FACS analysis): synergistically
